Results taken from US11866450B2, “Modulators of Cystic Fibrosis Transmembrane Conductance regulator, pharmaceutical compositions, methods of treatment, and process for making the modulators” (priority 2018, dated 2024).
Where two headings read alike, the source gives them in different places.

Tests used:
[1] = snar bond
[2] = target: CFTR-mediated chloride transport (Homo sapiens, UniProt P13569); assay type: cell-based; details: enteroid cells incubated with test compound 18-24 hours, acute 10 μM forskolin and 300 nM Compound III; for Max. Activity: % of chloride transport with 3 μM Compound A, 3 μM Compound II and 300 nM acute Compound III triple combination control
Chain of CFTR-mediated chloride transport (P13569 whole entry, looked up): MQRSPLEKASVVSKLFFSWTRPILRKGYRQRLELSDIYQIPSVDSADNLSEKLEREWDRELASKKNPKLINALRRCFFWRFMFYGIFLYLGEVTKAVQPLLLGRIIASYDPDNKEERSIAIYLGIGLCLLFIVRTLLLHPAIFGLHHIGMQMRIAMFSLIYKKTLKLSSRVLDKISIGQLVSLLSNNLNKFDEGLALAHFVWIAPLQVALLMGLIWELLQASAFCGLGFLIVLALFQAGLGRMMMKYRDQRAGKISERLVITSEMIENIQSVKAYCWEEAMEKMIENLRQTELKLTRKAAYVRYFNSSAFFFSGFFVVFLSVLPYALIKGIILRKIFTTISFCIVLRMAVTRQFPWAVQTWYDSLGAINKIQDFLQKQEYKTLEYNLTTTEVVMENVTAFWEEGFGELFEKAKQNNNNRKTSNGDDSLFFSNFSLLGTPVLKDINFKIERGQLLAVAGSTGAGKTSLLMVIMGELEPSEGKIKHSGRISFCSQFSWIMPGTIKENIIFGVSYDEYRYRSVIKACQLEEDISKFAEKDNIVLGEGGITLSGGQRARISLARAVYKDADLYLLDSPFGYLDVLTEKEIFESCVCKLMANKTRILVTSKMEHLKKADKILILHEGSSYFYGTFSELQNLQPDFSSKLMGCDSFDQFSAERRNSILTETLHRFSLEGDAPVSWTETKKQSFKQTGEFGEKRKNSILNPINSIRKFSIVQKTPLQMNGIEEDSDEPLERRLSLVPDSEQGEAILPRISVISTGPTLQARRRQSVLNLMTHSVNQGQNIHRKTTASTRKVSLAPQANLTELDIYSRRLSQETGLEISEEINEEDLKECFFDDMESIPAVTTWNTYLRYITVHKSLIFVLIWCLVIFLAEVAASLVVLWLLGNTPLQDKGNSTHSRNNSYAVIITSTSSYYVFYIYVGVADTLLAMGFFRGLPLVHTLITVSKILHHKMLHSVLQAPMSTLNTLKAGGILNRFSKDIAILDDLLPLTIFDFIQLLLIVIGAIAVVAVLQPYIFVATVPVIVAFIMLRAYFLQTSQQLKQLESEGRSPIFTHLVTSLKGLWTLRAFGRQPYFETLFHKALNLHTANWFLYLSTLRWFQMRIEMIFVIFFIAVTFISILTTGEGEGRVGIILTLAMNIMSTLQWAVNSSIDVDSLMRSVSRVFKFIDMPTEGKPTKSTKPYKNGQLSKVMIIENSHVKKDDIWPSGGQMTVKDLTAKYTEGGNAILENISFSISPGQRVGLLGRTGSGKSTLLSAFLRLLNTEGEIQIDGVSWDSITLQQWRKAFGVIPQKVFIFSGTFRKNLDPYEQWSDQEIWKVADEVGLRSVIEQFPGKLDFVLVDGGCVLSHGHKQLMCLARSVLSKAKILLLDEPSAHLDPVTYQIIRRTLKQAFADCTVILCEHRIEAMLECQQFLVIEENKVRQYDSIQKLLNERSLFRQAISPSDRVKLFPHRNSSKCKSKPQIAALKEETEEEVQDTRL
How it was run: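 Human intestinal enteroid cells incubated with compound 18–24 h at 37° C., then membrane potential dye (FLIPR) read 15 min after chloride-free stimulation with 10 μM forskolin, 100 μM IBMX and 300 nM Compound III. AUC expressed as % of triple-combination control (3 μM Compound A, 3 μM Compound II, 300 nM Compound III).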

Structure (SMILES)	EC50 [2] [nM]	Max. Activity [2]	further results
CC1(C)C2CCNc3cccc(n3)S(=O)(=O)NC(=O)c3ccc(-n4ccc(OCCC5(C(F)(F)F)CC5)n4)nc3N1CC2 (stereo not drawn) [Compound 236, 23,23-Dimethyl-11-(3-{2-[1-(trifluoromethyl)cyclopropyl]ethoxy}-1H-pyrazol-1-yl)-17λ^6-thia-2,8,10,16,22-pentaazatetracyclo[16.3.1.15,8.09,14]tricosa-1(22),9,11,13,18,20-hexaene-15,17,17-trione]	> 3000	+ (+ is <30%)	ring closure, isolated yield ([1]; from CC1(C)NCCC1CCNc1cccc(S(=O)(=O)NC(=O)c2ccc(-n3ccc(OCCC4(C(F)(F)F)CC4)n3)nc2Cl)n1, 14-membered ring, K2CO3/3A MS, DMSO, 25.1 mM, 180.0 °C, 18.0 h): 2%
[2H]C([2H])(COc1ccn(-c2ccc3c(n2)N2C[C@@H](CCCNc4cccc(n4)S(=O)(=O)NC3=O)CC2(C)C)n1)C1C2(CC2)C12CC2 [Compound 252, (14S)-8-[3-(2-{dispiro[2.0.2.1]heptan-7-yl}-2,2-dideuterio-ethoxy)-1H-pyrazol-1-yl]-12,12-dimethyl-2λ^6-thia-3,9,11,18,23-pentaazatetracyclo[17.3.1.111,14.05,10]tetracosa-1(22),5,7,9,19(23),20-hexaene-2,2,4-trione]	< 1000	+++ (+++ is >60%)	ring closure, isolated yield ([1]; from 2-chloro-6-[3-(2,2-dideuterio-2-dispiro[2.0.2.1]heptan-7-yl-ethoxy)pyrazol-1-yl]-N-[[3-[(3S)-5,5-dimethylpyrrolidin-3-yl]propylamino]-2-pyridyl]sulfonyl]pyridine-3-carboxamide (trifluoroacetate salt), 15-membered ring, K2CO3, NMP, 21.6 mM, 150.0 °C): 85%
CC1(C)C[C@@H]2CCCNc3cccc(n3)S(=O)(=O)NC(=O)c3ccc(-n4ccc(OCC(O)CC5(C(F)(F)F)CC5)n4)nc3N1C2 (stereo partly drawn) [Compound 259, (14S)-8-(3-{2-hydroxy-3-[1-(trifluoromethyl)cyclopropyl]propoxy}-1H-pyrazol-1-yl)-12,12-dimethyl-2λ^6-thia-3,9,11,18,23-pentaazatetracyclo[17.3.1.111,14.05,10]tetracosa-1(22),5(10),6,8,19(23),20-hexaene-2,2,4-trione]	< 1000	+++ (+++ is >60%)	ring closure, isolated yield ([1]; from CC(C)(C)OC(=O)N1C[C@@H](CCCNc2cccc(S(=O)(=O)NC(=O)c3ccc(-n4ccc(OCC(O)CC5(C(F)(F)F)CC5)n4)nc3Cl)n2)CC1(C)C, 15-membered ring, HCl/dioxane/DCM, then K2CO3/3A MS, DMSO, 28.6 mM, 155.0 °C, 2 steps): 42%
[2H]C([2H])(CCOc1ccn(-c2ccc3c(n2)N2C[C@@H](CCCNc4cccc(n4)S(=O)(=O)NC3=O)CC2(C)C)n1)C1(C(F)(F)F)CC1 [Compound 269, (14S)-12,12-Dimethyl-8-(3-{3-[1-(trifluoromethyl)cyclopropyl]-3,3-dideuterio-propoxy}-1H-pyrazol-1-yl)-2λ^6-thia-3,9,11,18,23-pentaazatetracyclo[17.3.1.111,14.05,10]tetracosa-1(22),5(10),6,8,19(23),20-hexaene-2,2,4-trione]	< 1000	+++ (+++ is >60%)	ring closure, isolated yield ([1]; from [2H]C([2H])(CCOc1ccn(-c2ccc(C(=O)NS(=O)(=O)c3cccc(NCCC[C@@H]4CN(C(=O)OC(C)(C)C)C(C)(C)C4)n3)c(Cl)n2)n1)C1(C(F)(F)F)CC1, 15-membered ring, TFA/DCM, then K2CO3/3A MS, DMSO, 30.5 mM, 150.0 °C, 2 steps): 24%
[2H]C([2H])([2H])C1(C([2H])([2H])[2H])C[C@@H]2CCCNc3cccc(n3)S(=O)(=O)NC(=O)c3ccc(-n4ccc(OCCC5C6(CC6)C56CC6)n4)nc3N1C2 [Compound 274, (14S)-8-[3-(2-{Dispiro[2.0.2.1]heptan-7-yl}ethoxy)-1H-pyrazol-1-yl]-12,12-di(trideuterio)methyl-2λ^6-thia-3,9,11,18,23-pentaazatetracyclo[17.3.1.111,14.05,10]tetracosa-1(23),5,7,9,19,21-hexaene-2,2,4-trione]	< 1000	+++ (+++ is >60%)	ring closure, isolated yield ([1]; from [2H]C([2H])([2H])C1(C([2H])([2H])[2H])C[C@H](CCCNc2cccc(S(=O)(=O)NC(=O)c3ccc(-n4ccc(OCCC5C6(CC6)C56CC6)n4)nc3Cl)n2)CN1, 15-membered ring, K2CO3, NMP, 53.5 mM, 150.0 °C): 47%
[2H]C([2H])(COc1ccn(-c2ccc3c(n2)N2C[C@@H](CCCNc4cccc(n4)S(=O)(=O)NC3=O)CC2(C)C)n1)C([2H])([2H])C1(C(F)(F)F)CC1 [Compound 287, (14S)-12,12-dimethyl-8-(3-{3-[1-(trifluoromethyl)cyclopropyl]-2,2,3,3-tetradeuterio-propoxy}-1H-pyrazol-1-yl)-2λ^6-thia-3,9,11,18,23-pentaazatetracyclo[17.3.1.111,14.05,10]tetracosa-1(22),5,7,9,19(23),20-hexaene-2,2,4-trione]	< 1000	++ (++ is 30-60%)	ring closure, isolated yield ([1]; from [2H]C([2H])(COc1ccn(-c2ccc(C(=O)NS(=O)(=O)c3cccc(NCCC[C@@H]4CNC(C)(C)C4)n3)c(Cl)n2)n1)C([2H])([2H])C1(C(F)(F)F)CC1, 15-membered ring, K2CO3, NMP, 20.8 mM, 155.0 °C, 18.0 h): 73%
[2H]C([2H])([2H])C1(C([2H])([2H])[2H])C[C@@H]2CCCNc3cccc(n3)S(=O)(=O)NC(=O)c3ccc(-n4ccc(OCCCC5(C(F)(F)F)CC5)n4)nc3N1C2 [Compound 292, (14S)-12,12-di(trideuterio)methyl-8-(3-{3-[1-(trifluoromethyl)cyclopropyl]propoxy}-1H-pyrazol-1-yl)-2λ^6-thia-3,9,11,18,23-pentaazatetracyclo[17.3.1.111,14.05,10]tetracosa-1(22),5,7,9,19(23),20-hexaene-2,2,4-trione]	< 1000	+++ (+++ is >60%)	ring closure, isolated yield ([1]; from [2H]C([2H])([2H])C1(C([2H])([2H])[2H])C[C@H](CCCNc2cccc(S(=O)(=O)NC(=O)c3ccc(-n4ccc(OCCCC5(C(F)(F)F)CC5)n4)nc3Cl)n2)CN1, 15-membered ring, K2CO3, NMP, 41.5 mM, 135.0 °C, 22.0 h): 27%
CC1(C)C[C@@H]2CCCNc3cccc(n3)S(=O)(=O)NC(=O)c3ccc(-n4ccc(OCCC(O)C5(C(F)(F)F)CC5)n4)nc3N1C2 (stereo partly drawn) [Compound 295, (14S)-8-(3-{3-hydroxy-3-[1-(trifluoromethyl)cyclopropyl]propoxy}-1H-pyrazol-1-yl)-12,12-dimethyl-2λ^6-thia-3,9,11,18,23-pentaazatetracyclo[17.3.1.111,14.05,10]tetracosa-1(22),5,7,9,19(23),20-hexaene-2,2,4-trione]	< 1000	++ (++ is 30-60%)	ring closure, isolated yield ([1]; from CC(C)(C)OC(=O)N1C[C@@H](CCCNc2cccc(S(=O)(=O)NC(=O)c3ccc(-n4ccc(OCCC(O[Si](C)(C)C(C)(C)C)C5(C(F)(F)F)CC5)n4)nc3Cl)n2)CC1(C)C, 15-membered ring, K2CO3/CsF/3A MS, DMSO, 41.7 mM, 150.0 °C, 2 steps): 46%
